The values below come from PMC5470982, “Thymoquinone exerts potent growth-suppressive activity on leukemia through DNA hypermethylation reversal in leukemia cells” (Oncotarget, 2017).

For the test, the target named is T1, M. SssI (Spiroplasma monobiae, UniProt P15840).
T1 construct: gene sssIM
The experiment in a line: in vitro DNA methylation assay with biotin/digoxigenin-labelled ds-oligonucleotide, HpaII cleavage and fluorescence readout. The format is biochemical.

T1 sequence (P15840 whole entry, looked up): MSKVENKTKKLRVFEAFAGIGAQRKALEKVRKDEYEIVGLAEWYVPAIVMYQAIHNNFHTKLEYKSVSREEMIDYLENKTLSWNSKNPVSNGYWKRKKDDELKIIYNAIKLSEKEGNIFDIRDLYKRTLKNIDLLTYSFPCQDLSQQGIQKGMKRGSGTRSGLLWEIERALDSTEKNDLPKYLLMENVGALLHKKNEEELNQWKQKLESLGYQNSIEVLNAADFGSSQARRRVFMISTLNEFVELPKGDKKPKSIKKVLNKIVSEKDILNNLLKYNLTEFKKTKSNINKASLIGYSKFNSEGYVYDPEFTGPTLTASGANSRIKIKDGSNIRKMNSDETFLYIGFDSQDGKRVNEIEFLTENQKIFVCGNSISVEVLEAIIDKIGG

Turning to `CC1=CC(=O)C(C(C)C)=CC1=O` [TQ, thymoquinone], the concentration for half-maximal inhibition (IC50) – broadly, the point on the concentration scale where inhibition reaches its midpoint – turned out to be 0.03 µM.
